Source: publication PMC11030672 (Cancer Immunology, Immunotherapy : CII, 2008)

How the values were obtained:
HLA-A3 = test: Assembly assay for peptide binding to MHC class I molecules; conditions: T2-A3 cells
T2-A3 cells = test: 51Cr-release cytotoxicity of T cell clone 9 against peptide-pulsed T2-A3 cells; type: cell-based; conditions: peptide 10 μM; E:T ratios 9:1, 3:1, 1:1, 0,3:1; duplicates
[1] = system: HLA-A3+ melanoma cell line FM3; test: 51Cr-release cytotoxicity of clone 9 against FM3 melanoma cells; type: cell-based; conditions: unlabeled T2-A3 cells pulsed with 10 μM peptide; inhibitor to target ratio 20:1; Fig. 4b, c

| Sequence | binding to HLA-A3 (in words) (HLA-A3) | lysis of peptide-pulsed T2-A3 cells by clone 9 (T2-A3 cells) | cold target inhibition of FM3 killing by clone 9 [1] |
| --- | --- | --- | --- |
| RLGLQVRKNK [Rho1L2] | bound with intermediate affinity | effectively lysed | completely abrogated the killing of FM3 melanoma cells |
| ILRGSVAHK [Influenza NP265–273, reference compound] | high affinity |  |  |
| RAGLQVRKNK [Rho1] | only bound very weakly to HLA-A3 | effectively lysed |  |
